In article PMC5608406, “In vivo activation of latent HIV with a synthetic bryostatin analog effects both latent cell "kick" and "kill" in strategy for virus eradication” (PLoS Pathogens, 2017):
Entries after “also recorded” stand apart in the source; their conditions may differ.

Tests used:
[1] = test system: HA+ (HIV-expressing) cells; type: in vivo, humanized BLT mice; settings: within 24 hours of activation, Ghost Red and Zombie Yellow
[2] = Plasma cytokine quantification after in vivo administration; settings: following administration to C57/bl6 mice
Method: Quantification of the levels of the murine cytokines IL-2, IL-6, MIP-1-alpha, and TNF-alpha in mouse plasma samples was performed using a custom Milliplex Mouse Cytokine/Chemokine Magnetic Kit (Millipore) according to the manufacturer’s recommendations. Wash steps were performed using a Bio-Plex II Wash Station (Bio-Rad), and the data were acquired using a Bio-Plex 200 System with high-throughput fluidics (Bio-Rad). The resultant data were analyzed using Bio-Plex Manager 6.1 software.

PKC epsilon = molecular target: T1, PKC epsilon (Homo sapiens, UniProt Q02156); assay: PKC binding assay, competition with 3H-PDBu
T1 construct: purchased Invitrogen
T1 sequence (Q02156 1-737): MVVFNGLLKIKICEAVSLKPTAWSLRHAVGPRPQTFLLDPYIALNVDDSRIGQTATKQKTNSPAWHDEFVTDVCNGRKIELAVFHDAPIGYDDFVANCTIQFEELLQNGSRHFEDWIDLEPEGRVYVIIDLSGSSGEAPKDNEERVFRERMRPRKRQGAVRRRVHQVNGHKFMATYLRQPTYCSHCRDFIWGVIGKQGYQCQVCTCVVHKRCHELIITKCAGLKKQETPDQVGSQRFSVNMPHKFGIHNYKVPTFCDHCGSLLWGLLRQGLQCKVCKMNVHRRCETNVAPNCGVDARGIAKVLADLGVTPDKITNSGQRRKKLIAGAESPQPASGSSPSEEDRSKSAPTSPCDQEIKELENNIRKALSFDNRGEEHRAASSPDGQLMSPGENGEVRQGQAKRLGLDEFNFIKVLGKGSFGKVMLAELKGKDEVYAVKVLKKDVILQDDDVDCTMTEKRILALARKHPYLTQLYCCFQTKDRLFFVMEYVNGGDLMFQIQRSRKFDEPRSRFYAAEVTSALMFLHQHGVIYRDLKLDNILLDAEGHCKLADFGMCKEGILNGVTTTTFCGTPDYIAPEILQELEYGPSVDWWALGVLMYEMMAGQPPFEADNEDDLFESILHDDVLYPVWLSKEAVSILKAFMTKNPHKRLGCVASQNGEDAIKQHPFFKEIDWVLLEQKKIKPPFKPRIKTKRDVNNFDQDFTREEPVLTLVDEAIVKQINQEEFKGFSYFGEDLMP
Method: (§1) This entails a glass-fiber filtration method to determine bound radioligand.
(§2) To a polypropylene vial was added Tris-HCl (pH 7.4, 1 M, 1 mL), KCl (1 M, 2 mL), CaCl2 (0.1 M, 30 μL), and bovine serum albumin (40 mg, from Sigma). This mixture was diluted to 20 mL with deionized H2O, and mixed gently. The buffer was stored on ice until use. The final concentration of these constituents are shown in S2 Table.
(§3) For every 2 assays, 3.5 mg phosphatidylserine (Avanti Polar Lipids, porcine, obtained as a solution in CHCl3) was isolated by removing chloroform under a stream of nitrogen followed by reduced pressure. The solid PS was suspended as vesicles in binding assay buffer (3.5 mL) by sonicating (Branson Sonifier 250, power = 2, 50% duty cycle) six times for 30 s with a 30 s rest between sonications. The resulting cloudy mixture (1 mg/mL PS) was stored on ice until use.
(§4) Assay Protein Kinase C (PKC) was prepared by dissolving a 4 μg aliquot of the indicated recombinant human PKC isoform (Invitrogen) into 11.6 mL of binding assay buffer. The KD values for all 7 isoforms were determined experimentally. The diluted PKC was stored on ice for immediate use. This amount is sufficient for 2 assays with room for error.
(§5) This 500 nM stock solution was further diluted in DMSO to 30 nM for use in assays. The 500 nM and 30 nM stock solutions were stored frozen in DMSO at −20°C until use. […] Seven analog concentrations were used to define the inhibition curve.
(§6) The resulting solution was vortexed to mix and stored on ice.
(§7) Triplicate data points were obtained for each analog concentration. For each data point, 280 μL of Master Mix Solution and test compound at the given concentration (20 μL) were added to a polypropylene tube. […] Counts per minute (cpm) were averaged for each triplicate dilution.

PKC theta = molecular target: T2, PKC theta (Homo sapiens, UniProt Q04759); assay: PKC binding assay, competition with 3H-PDBu
T2 construct: purchased Invitrogen
Method: as §1, §2, §3, §4, §5, §6, §7

PKC delta = molecular target: T3, PKC delta (Homo sapiens, UniProt Q05655); assay: PKC binding assay, competition with 3H-PDBu
T3 construct: purchased Invitrogen
Method: as §1, §2, §3, §4, §5, §6, §7

PKC alpha = molecular target: T4, PKC alpha (Homo sapiens, UniProt P17252); assay: PKC binding assay, competition with 3H-PDBu
T4 construct: purchased Invitrogen
Method: as §1, §2, §3, §4, §5, §6, §7

PKC eta = molecular target: T5, PKC eta (Homo sapiens, UniProt P24723); assay: PKC binding assay, competition with 3H-PDBu
T5 construct: purchased Invitrogen
Method: as §1, §2, §3, §4, §5, §6, §7

PKC gamma = molecular target: T6, PKC gamma (Homo sapiens, UniProt P05129); assay: PKC binding assay, competition with 3H-PDBu
T6 construct: purchased Invitrogen
Method: as §1, §2, §3, §4, §5, §6, §7

PKC beta I = molecular target: T7, PKC beta I (Homo sapiens, UniProt P05771); assay: PKC binding assay, competition with 3H-PDBu
T7 construct: purchased Invitrogen
Method: as §1, §2, §3, §4, §5, §6, §7

C57/bl6 mice = assay: In vivo acute toxicity / tolerability in C57/bl6 mice; settings: intraperitoneal injection, in some cases
Method: C57/bl6 mice were obtained from the UCLA Department of Radiation Oncology. Compounds were suspended in DMSO and then further diluted in RF10 media to produce a final volume of 500 μL (containing a maximum 4% DMSO). These 500 μL volumes were administered to mice by intraperitoneal injection. Mice were monitored for acute toxicities and then sacrificed at the indicated times. Spleens were removed and disaggregated using a steel mesh, and then filtered through a 40 μm filter to produce a single-cell suspension. The resultant splenocytes were then stained for flow cytometry to analyze surface expression of relevant markers.

HIV strain NL-HA = type: in vivo, humanized BLT mice; settings: IP injection while maintaining ART, overnight incubation

T5 sequence (P24723 whole entry): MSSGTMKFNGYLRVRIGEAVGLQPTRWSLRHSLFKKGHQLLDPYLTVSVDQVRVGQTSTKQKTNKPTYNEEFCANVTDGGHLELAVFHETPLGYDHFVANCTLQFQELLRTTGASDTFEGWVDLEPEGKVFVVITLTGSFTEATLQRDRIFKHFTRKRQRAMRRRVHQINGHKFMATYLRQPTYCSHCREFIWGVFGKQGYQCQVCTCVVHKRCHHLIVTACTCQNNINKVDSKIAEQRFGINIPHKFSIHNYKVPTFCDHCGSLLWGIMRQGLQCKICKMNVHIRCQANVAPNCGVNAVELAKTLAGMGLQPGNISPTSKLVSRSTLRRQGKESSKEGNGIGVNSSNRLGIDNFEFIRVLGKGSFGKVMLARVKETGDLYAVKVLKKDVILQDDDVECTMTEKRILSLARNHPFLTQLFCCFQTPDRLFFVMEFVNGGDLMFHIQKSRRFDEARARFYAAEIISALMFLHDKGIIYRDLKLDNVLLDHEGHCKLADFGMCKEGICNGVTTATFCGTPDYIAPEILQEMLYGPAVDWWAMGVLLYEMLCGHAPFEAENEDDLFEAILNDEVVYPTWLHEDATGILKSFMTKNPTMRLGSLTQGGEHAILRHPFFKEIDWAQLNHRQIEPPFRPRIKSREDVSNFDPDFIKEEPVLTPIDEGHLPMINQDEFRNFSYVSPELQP
T7 sequence (P05771 whole entry): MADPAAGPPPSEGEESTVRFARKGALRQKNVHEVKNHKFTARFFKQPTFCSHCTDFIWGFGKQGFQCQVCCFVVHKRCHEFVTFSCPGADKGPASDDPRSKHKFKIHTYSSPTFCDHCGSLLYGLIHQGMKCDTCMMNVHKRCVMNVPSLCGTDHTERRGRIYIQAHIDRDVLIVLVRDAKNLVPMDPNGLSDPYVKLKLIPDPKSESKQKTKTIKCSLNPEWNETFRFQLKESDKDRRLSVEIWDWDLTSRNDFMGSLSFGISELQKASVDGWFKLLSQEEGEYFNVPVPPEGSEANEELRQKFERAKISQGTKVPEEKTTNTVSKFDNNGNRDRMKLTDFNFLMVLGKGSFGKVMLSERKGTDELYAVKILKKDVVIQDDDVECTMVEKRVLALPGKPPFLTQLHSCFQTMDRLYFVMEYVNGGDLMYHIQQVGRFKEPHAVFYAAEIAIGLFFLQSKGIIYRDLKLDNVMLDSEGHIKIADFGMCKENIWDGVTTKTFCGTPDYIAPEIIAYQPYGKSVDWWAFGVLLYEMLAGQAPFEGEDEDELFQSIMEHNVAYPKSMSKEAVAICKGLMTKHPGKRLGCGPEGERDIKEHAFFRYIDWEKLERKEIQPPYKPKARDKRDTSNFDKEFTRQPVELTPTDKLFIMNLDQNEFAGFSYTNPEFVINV
T2 sequence (Q04759 whole entry): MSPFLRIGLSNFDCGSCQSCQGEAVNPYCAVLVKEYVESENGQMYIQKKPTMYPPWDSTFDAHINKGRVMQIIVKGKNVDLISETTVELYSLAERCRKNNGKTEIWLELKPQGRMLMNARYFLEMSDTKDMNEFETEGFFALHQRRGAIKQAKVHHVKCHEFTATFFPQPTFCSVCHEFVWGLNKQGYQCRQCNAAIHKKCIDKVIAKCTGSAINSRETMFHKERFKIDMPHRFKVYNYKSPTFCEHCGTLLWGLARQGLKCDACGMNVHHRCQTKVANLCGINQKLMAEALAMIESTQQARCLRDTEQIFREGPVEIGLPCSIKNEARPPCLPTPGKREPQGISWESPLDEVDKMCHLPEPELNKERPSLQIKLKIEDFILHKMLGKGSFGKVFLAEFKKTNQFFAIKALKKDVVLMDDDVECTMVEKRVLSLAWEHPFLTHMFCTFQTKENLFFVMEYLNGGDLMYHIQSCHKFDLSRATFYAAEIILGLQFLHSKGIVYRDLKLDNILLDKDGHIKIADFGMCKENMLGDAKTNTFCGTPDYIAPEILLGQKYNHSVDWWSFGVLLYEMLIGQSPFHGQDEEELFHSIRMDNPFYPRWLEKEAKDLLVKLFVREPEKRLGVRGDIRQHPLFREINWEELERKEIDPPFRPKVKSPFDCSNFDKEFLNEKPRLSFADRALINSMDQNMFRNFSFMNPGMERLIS
T3 sequence (Q05655 whole entry): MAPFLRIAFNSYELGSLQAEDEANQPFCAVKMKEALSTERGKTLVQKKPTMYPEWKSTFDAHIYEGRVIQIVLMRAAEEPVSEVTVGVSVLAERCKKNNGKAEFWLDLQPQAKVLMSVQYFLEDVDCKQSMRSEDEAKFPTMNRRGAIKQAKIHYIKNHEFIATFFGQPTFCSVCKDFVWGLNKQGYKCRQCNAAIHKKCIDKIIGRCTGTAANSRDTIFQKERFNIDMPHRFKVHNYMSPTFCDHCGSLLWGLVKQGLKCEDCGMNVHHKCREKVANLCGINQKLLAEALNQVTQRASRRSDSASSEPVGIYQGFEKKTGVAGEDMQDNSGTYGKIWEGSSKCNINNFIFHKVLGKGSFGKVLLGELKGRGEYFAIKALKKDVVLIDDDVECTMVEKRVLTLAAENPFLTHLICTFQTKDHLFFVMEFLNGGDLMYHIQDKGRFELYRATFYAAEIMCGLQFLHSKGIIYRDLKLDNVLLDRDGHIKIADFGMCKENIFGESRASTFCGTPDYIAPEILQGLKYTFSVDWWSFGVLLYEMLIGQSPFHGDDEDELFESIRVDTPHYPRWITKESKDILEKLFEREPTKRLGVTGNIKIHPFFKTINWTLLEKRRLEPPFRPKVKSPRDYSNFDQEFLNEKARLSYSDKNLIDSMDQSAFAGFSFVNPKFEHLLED

For `C=C1C[C@H]2C[C@]3(O)O[C@H](C[C@@H](O)CC(=O)O[C@@H](CO)C[C@@H]4C/C(=C\C(=O)OC)[C@H](OC(=O)CCCCCCC)[C@@](O)(O4)C(C)(C)/C=C/[C@@H](C1)O2)C[C@H](OC(C)=O)C3(C)C` [SUW133], the “cells induced to express HIV that stained with cell death dyes” value [1] was “up to 25%”, the “plasma concentration of MIP-1-alpha” value [2] was “no detectable increase” and the “plasma concentration of TNF-alpha” value [2] was “no detectable increase”. For the same compound, the “plasma concentration of interleukin (IL)-2” value [2] was “no detectable increase”, the “plasma IL-6 levels” value ([2]; days 1 to 9) was “only a short-term elevation; also recorded: declined significantly between days 1 and 9 post-injection” and the Ki (PKC epsilon) was 5.8 nM. For the same compound, the Ki (PKC theta) was 2 nM, the Ki (PKC delta) was 2 nM and the Ki (PKC alpha) was 1.8 nM. It also gave a Ki (PKC eta) of 6.4 nM, a Ki (PKC gamma) of 5.6 nM and a Ki (PKC beta I) of 6.3 nM. The tolerated dose (C57/bl6 mice) was “up to 30 μg per animal” and the “percentage of HA+ (HIV-expressing) cells” value (HIV strain NL-HA) was “induced significant numbers of latently-infected cells to express viral proteins”.
